# From patent US9351987B2, “Compositions for treating heartworm infestation” (CEVA SANTE ANIMALE, priority 2010, dated 2016)
# Read-outs that look alike come from different tables or passages of the source.
# How the values were obtained:
# [1] = 14-week oral study, cited from earlier work
# [2] = Plasma ivermectin concentration after ivermectin implant in dogs; type: in vivo, dog
# From the text: The concentrations of ivermectin (ng/mL) in the plasma, collected in the jugular vein at day 0 to day 429, are presented in Table 2.
# The concentrations of ivermectin in the plasma, collected in the jugular vein, have been evaluated during 429 days for dogs A and […] (Table 2, Example 1) or just dosed until D365 for dogs C and D.
# Dirofilaria larvae [3] = conditions: cited from earlier work
# Dirofilaria larvae [4] = experiment: Effective ivermectin rate against Dirofilaria larvae; type: in vivo; conditions: established by the present inventors
# Protocol: Currently approved dosages of ivermectin are about 6 mcg/kg orally or 200 mcg/kg subcutaneously. […] Cunningham C P et al., (Am. J. Vet, Res., 2006, 67) brought evidence that this effective rate might be around 0.2 ng/mL of ivermectin in the plasma.
# Also, the formulations according to the present invention provide a long term protection, e.g., at least 6 months, 12 months, or 18 months up to 24 months against infections caused by parasites.
# [5] = 36-day study, beagle dogs, cited from earlier work
# [6] = estimated from reports from non recommended use of the drug; cited from earlier work
structure (smiles),measurement,setting,value
CC[C@H](C)[C@H]1O[C@]2(CC[C@@H]1C)C[C@@H]1C[C@@H](C/C=C(\C)[C@@H](O[C@H]3C[C@H](OC)[C@@H](O[C@H]4C[C@H](OC)[C@@H](O)[C@H](C)O4)[C@H](C)O3)[C@@H](C)/C=C/C=C3\CO[C@@H]4[C@H](O)C(C)=C[C@@H](C(=O)O1)[C@]34O)O2 [Ivermectin],No Observable Effect Levels (NOEL),[1]; beagle dogs (4/sex/group),0.5 mg/kg bw
same,"Signs developed (four dogs, killed prior to the end of the study)","[1]; beagle dogs, 2.0 mg/kg bw group","tremors, ataxia, anorexia and dehydration"
same,Signs observed,"[1]; beagle dogs, 1.0 and 2.0 mg/kg bw",mydriasis and slight weight loss
same,Ivermectin concentration in plasma,"[2]; dog A (6% ivermectin implant), day 1",6.25 ng/mL
same,Ivermectin concentration in plasma,"[2]; dog A (6% ivermectin implant), day 2",5.29 ng/mL
same,Ivermectin concentration in plasma,"[2]; dog A (6% ivermectin implant), day 4",5.25 ng/mL
same,Ivermectin concentration in plasma,"[2]; dog A (6% ivermectin implant), day 10",2.56 ng/mL
same,Ivermectin concentration in plasma,"[2]; dog A (6% ivermectin implant), day 21",1.35 ng/mL
same,Ivermectin concentration in plasma,"[2]; dog A (6% ivermectin implant), day 30",0.91 ng/mL
same,Ivermectin concentration in plasma,"[2]; dog A (6% ivermectin implant), day 39",1.09 ng/mL
same,Ivermectin concentration in plasma,"[2]; dog A (6% ivermectin implant), day 60",0.76 ng/mL
same,Ivermectin concentration in plasma,"[2]; dog A (6% ivermectin implant), day 78",0.67 ng/mL
same,Ivermectin concentration in plasma,"[2]; dog A (6% ivermectin implant), day 99",0.26 ng/mL
same,Ivermectin concentration in plasma,"[2]; dog A (6% ivermectin implant), day 120",0.44 ng/mL
same,Ivermectin concentration in plasma,"[2]; dog A (6% ivermectin implant), day 141",0.28 ng/mL
same,Ivermectin concentration in plasma,"[2]; dog A (6% ivermectin implant), day 162",0.18 ng/mL
same,Ivermectin concentration in plasma,"[2]; dog A (6% ivermectin implant), day 183",0.13 ng/mL
same,Ivermectin concentration in plasma,"[2]; dog A (6% ivermectin implant), day 211",0.14 ng/mL
same,Ivermectin concentration in plasma,"[2]; dog A (6% ivermectin implant), day 239",0.10 ng/mL
same,Ivermectin concentration in plasma,"[2]; dog A (6% ivermectin implant), day 266",0.12 ng/mL
same,Ivermectin concentration in plasma,"[2]; dog A (6% ivermectin implant), day 295",0.07 ng/mL
same,Ivermectin concentration in plasma,"[2]; dog A (6% ivermectin implant), day 329",0.06 ng/mL
same,Ivermectin concentration in plasma,"[2]; dog A (6% ivermectin implant), day 365",0.14 ng/mL
same,Ivermectin concentration in plasma,"[2]; dog A (6% ivermectin implant), day 380",0.14 ng/mL
same,Ivermectin concentration in plasma,"[2]; dog A (6% ivermectin implant), day 395",0.17 ng/mL
same,Ivermectin concentration in plasma,"[2]; dog A (6% ivermectin implant), day 429",0.20 ng/mL
same,Ivermectin concentration in plasma,"[2]; dog B (6% ivermectin implant), day 1",3.50 ng/mL
same,Ivermectin concentration in plasma,"[2]; dog B (6% ivermectin implant), day 2",3.04 ng/mL
same,Ivermectin concentration in plasma,"[2]; dog B (6% ivermectin implant), day 4",2.62 ng/mL
same,Ivermectin concentration in plasma,"[2]; dog B (6% ivermectin implant), day 10",0.97 ng/mL
same,Ivermectin concentration in plasma,"[2]; dog B (6% ivermectin implant), day 21",1.92 ng/mL
same,Ivermectin concentration in plasma,"[2]; dog B (6% ivermectin implant), day 30",1.01 ng/mL
same,Ivermectin concentration in plasma,"[2]; dog B (6% ivermectin implant), day 39",1.02 ng/mL
same,Ivermectin concentration in plasma,"[2]; dog B (6% ivermectin implant), day 60",0.51 ng/mL
same,Ivermectin concentration in plasma,"[2]; dog B (6% ivermectin implant), day 78",0.29 ng/mL
same,Ivermectin concentration in plasma,"[2]; dog B (6% ivermectin implant), day 99",0.11 ng/mL
same,Ivermectin concentration in plasma,"[2]; dog B (6% ivermectin implant), day 120",0.30 ng/mL
same,Ivermectin concentration in plasma,"[2]; dog B (6% ivermectin implant), day 141",0.23 ng/mL
same,Ivermectin concentration in plasma,"[2]; dog B (6% ivermectin implant), day 162",0.10 ng/mL
same,Ivermectin concentration in plasma,"[2]; dog B (6% ivermectin implant), day 183",0.11 ng/mL
same,Ivermectin concentration in plasma,"[2]; dog B (6% ivermectin implant), day 211",0.24 ng/mL
same,Ivermectin concentration in plasma,"[2]; dog B (6% ivermectin implant), day 239",0.05 ng/mL
same,Ivermectin concentration in plasma,"[2]; dog B (6% ivermectin implant), day 266",0.10 ng/mL
same,Ivermectin concentration in plasma,"[2]; dog B (6% ivermectin implant), day 295",0.06 ng/mL
same,Ivermectin concentration in plasma,"[2]; dog B (6% ivermectin implant), day 365",0.06 ng/mL
same,Ivermectin concentration in plasma,"[2]; dog B (6% ivermectin implant), day 380",0.06 ng/mL
same,Ivermectin concentration in plasma,"[2]; dog B (6% ivermectin implant), day 395",0.08 ng/mL
same,Ivermectin concentration in plasma,"[2]; dog B (6% ivermectin implant), day 429",0.06 ng/mL
same,Ivermectin concentration in plasma,"[2]; dog C (4.5% ivermectin implant), day 1",6.93 ng/mL
same,Ivermectin concentration in plasma,"[2]; dog C (4.5% ivermectin implant), day 2",6.42 ng/mL
same,Ivermectin concentration in plasma,"[2]; dog C (4.5% ivermectin implant), day 4",4.77 ng/mL
same,Ivermectin concentration in plasma,"[2]; dog C (4.5% ivermectin implant), day 10",2.64 ng/mL
same,Ivermectin concentration in plasma,"[2]; dog C (4.5% ivermectin implant), day 21",2.14 ng/mL
same,Ivermectin concentration in plasma,"[2]; dog C (4.5% ivermectin implant), day 30",1.79 ng/mL
same,Ivermectin concentration in plasma,"[2]; dog C (4.5% ivermectin implant), day 39",1.74 ng/mL
same,Ivermectin concentration in plasma,"[2]; dog C (4.5% ivermectin implant), day 60",0.28 ng/mL
same,Ivermectin concentration in plasma,"[2]; dog C (4.5% ivermectin implant), day 78",0.17 ng/mL
same,Ivermectin concentration in plasma,"[2]; dog C (4.5% ivermectin implant), day 99",0.21 ng/mL
same,Ivermectin concentration in plasma,"[2]; dog C (4.5% ivermectin implant), day 120",0.27 ng/mL
same,Ivermectin concentration in plasma,"[2]; dog C (4.5% ivermectin implant), day 141",0.26 ng/mL
same,Ivermectin concentration in plasma,"[2]; dog C (4.5% ivermectin implant), day 162",0.17 ng/mL
same,Ivermectin concentration in plasma,"[2]; dog C (4.5% ivermectin implant), day 183",0.17 ng/mL
same,Ivermectin concentration in plasma,"[2]; dog C (4.5% ivermectin implant), day 211",0.15 ng/mL
same,Ivermectin concentration in plasma,"[2]; dog C (4.5% ivermectin implant), day 239",0.11 ng/mL
same,Ivermectin concentration in plasma,"[2]; dog C (4.5% ivermectin implant), day 266",0.13 ng/mL
same,Ivermectin concentration in plasma,"[2]; dog C (4.5% ivermectin implant), day 295",0.13 ng/mL
same,Ivermectin concentration in plasma,"[2]; dog C (4.5% ivermectin implant), day 329",0.06 ng/mL
same,Ivermectin concentration in plasma,"[2]; dog C (4.5% ivermectin implant), day 365",0.16 ng/mL
same,Ivermectin concentration in plasma,"[2]; dog D (3% ivermectin implant), day 1",7.63 ng/mL
same,Ivermectin concentration in plasma,"[2]; dog D (3% ivermectin implant), day 2",6.95 ng/mL
same,Ivermectin concentration in plasma,"[2]; dog D (3% ivermectin implant), day 4",4.35 ng/mL
same,Ivermectin concentration in plasma,"[2]; dog D (3% ivermectin implant), day 10",3.82 ng/mL
same,Ivermectin concentration in plasma,"[2]; dog D (3% ivermectin implant), day 21",1.23 ng/mL
same,Ivermectin concentration in plasma,"[2]; dog D (3% ivermectin implant), day 30",1.54 ng/mL
same,Ivermectin concentration in plasma,"[2]; dog D (3% ivermectin implant), day 39",1.15 ng/mL
same,Ivermectin concentration in plasma,"[2]; dog D (3% ivermectin implant), day 60",0.84 ng/mL
same,Ivermectin concentration in plasma,"[2]; dog D (3% ivermectin implant), day 78",0.52 ng/mL
same,Ivermectin concentration in plasma,"[2]; dog D (3% ivermectin implant), day 99",0.69 ng/mL
same,Ivermectin concentration in plasma,"[2]; dog D (3% ivermectin implant), day 120",0.87 ng/mL
same,Ivermectin concentration in plasma,"[2]; dog D (3% ivermectin implant), day 141",0.65 ng/mL
same,Ivermectin concentration in plasma,"[2]; dog D (3% ivermectin implant), day 162",0.45 ng/mL
same,Ivermectin concentration in plasma,"[2]; dog D (3% ivermectin implant), day 183",0.51 ng/mL
same,Ivermectin concentration in plasma,"[2]; dog D (3% ivermectin implant), day 211",0.29 ng/mL
same,Ivermectin concentration in plasma,"[2]; dog D (3% ivermectin implant), day 239",0.18 ng/mL
same,Ivermectin concentration in plasma,"[2]; dog D (3% ivermectin implant), day 266",0.22 ng/mL
same,Ivermectin concentration in plasma,"[2]; dog D (3% ivermectin implant), day 295",0.13 ng/mL
same,Ivermectin concentration in plasma,"[2]; dog D (3% ivermectin implant), day 329",0.13 ng/mL
same,Ivermectin concentration in plasma,"[2]; dog D (3% ivermectin implant), day 365",0.09 ng/mL
same,Effective rate of ivermectin in the plasma,"Dirofilaria larvae [3]; Cunningham C P et al., Am. J. Vet. Res., 2006, 67",around 0.2 ng/mL
same,Effect on Dirofilaria larvae,"Dirofilaria larvae [3]; ivermectin administered per se at 6 mcg/kg, generally reported",able to kill efficiency one month aged Dirofilaria larvae
same,Effective rate of ivermectin in the plasma,Dirofilaria larvae [4],around 0.1 ng/mL
same,Time to steady-state of H2B1a in plasma,[5]; oral 0.5 and 2.0 mg/kg bw,after about three weeks
same,Average increase in plasma levels on a four-fold increase in the dose,[5]; oral 0.5 vs 2.0 mg/kg bw,eight-fold
same,Share of collie dogs highly sensitive to ivermectin,[6],Approximately 30%
